Measured values reported in the NIST ThermoML archive (doi:10.1021/je700714m).

Legend:
[1] = for mass density / speed of sound / viscosity: 100 kPa, Liquid
[2] = refractive index (Na D-line) (dimensionless); conditions: 101.33 kPa, Liquid
[3] = refractive index (Na D-line) (dimensionless); xn = mol fraction of the nth substance listed; conditions: 100 kPa, Liquid, x2 = 0
[4] = xn = mol fraction of the nth substance listed; conditions: x2 = 0; for mass density / speed of sound / viscosity: 100 kPa, Liquid

COc1ccc(C=O)cc1 [4-methoxybenzaldehyde]
Conditions	mass density, [1] [kg/m3]	refractive index, [2]	speed of sound, [1] [m/s]	surface tension liquid-gas, [1] [mN/m]	viscosity, [1] [mPa·s]
303.15 K	1125.5	1.5571	1684	99.08	3.275
313.15 K	1119.1	1.5488	1631	96.11	2.97
323.15 K	1114.1	1.5463	1571	94.1	2.442

Clc1ccccc1 [chlorobenzene]
Conditions	mass density, [1] [kg/m3]	refractive index, [2]	speed of sound, [1] [m/s]	surface tension liquid-gas, [1] [mN/m]	viscosity, [1] [mPa·s]
303.15 K	1102	–	1220	33.6	0.7105
313.15 K	1080	–	–	32.3	0.6914
323.15 K	1067.4	1.548	695	31.26	0.5543

Clc1ccccc1 [chlorobenzene] + COc1ccc(C=O)cc1
Conditions	mass density, [4] [kg/m3]	refractive index, [3]	speed of sound, [4] [m/s]	surface tension liquid-gas, [4] [mN/m]	viscosity, [4] [mPa·s]
303.15 K	1102	1.559	1220	33.6	0.7105
313.15 K	1080	1.5509	–	32.3	0.6914
323.15 K	1067.4	1.548	695	31.26	0.5543
